Experimental findings from patent US20150329864A1, “DESIGN OF OLIGONUCLEOTIDE ANALOGS AS THERAPEUTIC AGENTS” (SPRING BANK PHARMACEUTICALS, INC., priority 2010, published 2015) are described below.

The test system of one data set is HCV. The data set is described as follows: Combination studies against HCV in replicon assays. It is filed as cell-based. The following applies: Hepatitis C virus; monotherapy; read-out: EC50 (uM), single drug.
Data set [1] is described as follows: Cytotoxicity by neutral red dye uptake in HCV replicon cultures. It is filed as cell-based. The following applies: human, AVA5 HCV replicon cell line (sub-genomic CON1, genotype 1b); single drug, Table 9; read-out: CC50. How it is done:
Antiviral activity against HCV was assessed in a 3-day assay (Okuse, et al., 2005; Antiviral. Res. 65:23; Korba, et al., 2008, Antiviral Res. 77:56) using the stably-expressing HCV replicon cell line, AVA5 (sub-genomic (CON1), genotype 1b) (Blight, et al., 2000; Science 290:1972) maintained as sub-confluent cultures on 96-well plates. Antiviral activity was determined by blot hybridization analysis of intracellular HCV RNA (normalized to the level of cellular B-actin RNA in each culture sample). Cytotoxicity was assessed by neutral red dye uptake in cultures maintained in parallel plates.
EC50, EC90, and CC50 values were calculated by linear regression analysis (MS EXCEL®, QuattroPro®) using data combined from all treated cultures Korba & Gerin, 1992, Antivir. Res. 19:55; Okuse, et al., 2005, Antivir. Res. 65:23). […]
Combination treatments are conducted as previously described. Briefly, two agents were mixed together at a pre-determined concentration ratio. […] Analysis of drug interactions in the combination studies was determined by the use of the CALCUSYN program (Biosoft, Inc., Cambridge, United Kingdom). […]

The target of another data set is T1, RIG-I (Homo sapiens, UniProt O95786).
T1 sequence (O95786 1-925): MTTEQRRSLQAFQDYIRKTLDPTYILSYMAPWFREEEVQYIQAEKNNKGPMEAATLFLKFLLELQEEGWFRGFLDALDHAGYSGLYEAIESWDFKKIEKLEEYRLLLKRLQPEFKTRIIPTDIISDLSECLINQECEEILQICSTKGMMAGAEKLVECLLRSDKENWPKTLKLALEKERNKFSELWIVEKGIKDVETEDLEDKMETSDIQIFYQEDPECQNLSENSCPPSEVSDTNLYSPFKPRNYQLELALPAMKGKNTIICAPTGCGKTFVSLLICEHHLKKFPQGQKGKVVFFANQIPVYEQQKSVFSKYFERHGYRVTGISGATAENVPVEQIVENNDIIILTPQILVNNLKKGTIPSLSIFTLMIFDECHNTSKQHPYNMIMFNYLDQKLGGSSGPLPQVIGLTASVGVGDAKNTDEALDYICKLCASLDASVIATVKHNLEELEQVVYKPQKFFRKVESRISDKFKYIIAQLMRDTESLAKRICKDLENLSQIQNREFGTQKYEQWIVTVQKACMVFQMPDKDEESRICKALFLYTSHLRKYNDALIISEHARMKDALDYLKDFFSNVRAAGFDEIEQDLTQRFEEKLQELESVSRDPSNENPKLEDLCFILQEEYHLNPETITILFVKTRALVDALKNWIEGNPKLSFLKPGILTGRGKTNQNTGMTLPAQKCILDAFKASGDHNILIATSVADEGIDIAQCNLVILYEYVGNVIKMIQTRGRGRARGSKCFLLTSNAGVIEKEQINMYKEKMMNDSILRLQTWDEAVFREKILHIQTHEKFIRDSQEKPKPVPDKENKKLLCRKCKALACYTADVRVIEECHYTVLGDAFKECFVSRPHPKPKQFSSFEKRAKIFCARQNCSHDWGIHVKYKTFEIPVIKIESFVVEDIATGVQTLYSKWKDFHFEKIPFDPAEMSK
As to the kind of experiment: RIG-I translocation on dsRNA, single-molecule PIFE assay. The data set is classed as biochemical. The settings on record: PIFE assay. How it is done: An in vitro single-molecule fluorescence assay termed PIFE (protein induced fluorescence enhancement) was employed to monitor such movement (Myong, S. et al., Science, 323, 1070, 2009).
For quantitation of RIG-I translocation, Single molecule PIFE yields were estimated. Single molecule PIFE yields are obtained from several hundred molecules simultaneously, allowing statistically reliable data collection.
The translocation as above was carried out using different concentrations of nucleotide compound.
A standard dsRNA (25 bp) was used as a main substrate for RIG-I translocation assay. […] The ratio between rapid (stimulated) translocation and slow translocation would be accounted for in the estimation of compound strength. In order to quantify the affinity of the compound to RIG-I or to RNA substrate, various concentrations of the compound (1-100 μM range) were used in the assay. This enabled the calculation of the association/dissociation constant for each compound, which was a useful measure to apply in cell-based evaluation of compound potency.
The same translocation assay was used on dsRNA, which contains […] moiety with and without the compound.

A further data set deals with HBV WT. The data set is described as follows: HepG2.2.15 cell-based HBV assay, wild type. The following applies: Hepatitis B virus, HBV WT, 9 daily doses; for EC50: read-out: EC50; for EC90: read-out: EC90. How it is done: Selected compounds were evaluated in in vitro cell-based HepG2.2.15 HBV assay.
Antiviral analysis. For the antiviral analyses, confluent cultures of 2.2.1.5 cells were maintained on 96-well flat-bottomed tissue culture plates in RPMI1640 medium with 2% fetal bovine serum. Cultures (6 per each test concentration on two replicate plates) were treated with 9 consecutive daily doses of the test compounds. Medium was changed daily with fresh test compounds. HBV nucleic acid and protein levels were measured 24 hours after the last treatment. Extracellular (virion) HBV DNA levels were assessed by quantitative blot hybridization. Intracellular HBV DNA levels were measured by quantitative Southern blot hybridization.
The uptake of neutral red dye was used to determine the relative level of toxicity 24 hours following the last treatment. The absorbance of internalized dye at […] (A510) was used for the semi-quantitative analysis. Values are presented as a percentage of the average A510 values (±standard deviations) in 9 separate cultures of untreated cells maintained on the 96-well plates seeded at the same time with the identical pool of stock cells used for the antiviral analyses and maintained in an identical manner. A total of 3 cultures were treated with each concentration of the test compound.

The test system of a further data set is HBV-3TC-R4 LMMV. It is filed as cell-based. The settings on record: Hepatitis B virus.
The test system of data set [2] is human hepatitis B virus. As to the kind of experiment: Anti-HBV activity in the HBV transgenic mouse model, oral administration. It is filed as in vivo, transgenic mice. The settings on record: 10 mg/kg/d, oral, once daily 14 days. How it is done:
Compound 6k was evaluated for anti-HBV activity in the transgenic mouse model of HBV infection. Male transgenic mouse infected with HBV, with age ranging from 78 to 108 days were used. Compound 6k was initially evaluated at a single dose of 300 mg/kg, administered daily for 14 days by oral gavage. The compounds were administered in citric acid and adefovir dipivoxil was used as a positive control. A control group which received vehicle was used a negative control. Following the treatment, mice were sacrificed and liver tissue analyzed for HBV DNA using Southern blot analysis. The data was statistically evaluated using Kruskall-Wallis non-parametric ANOVA.
(a) Male and female transgenic mice (founder 1.3.32) were infected with human hepatitis B virus. Following infection, animals were orally administered Compound 6k, or a placebo of 0.05 M citric acid, pH 2.0 once daily for 14 days. Dosage was 300 mg/kg/d for Compound 6k. The positive control, ADV, was administered at 10 mg/kg/d.
Male and female transgenic mice (founder 1.3.32) were infected with human hepatitis B virus. Following infection, animals were orally administered Compound 6k, or a placebo of 0.05 M citric add, pH 2.0 once daily for 14 days. Dosages were 100, 10.5 and 1 mg/kg/d for Compound 6K. The positive control, ADV, was administered at 10 mg/kg/d.

In data set [3] the test system is human hepatitis B virus. Described as above. It is filed as in vivo, transgenic mice. The following applies: p.o., qd × 14 d.
For a further data set, the system named is hepatitis B virus (HBV). As to the kind of experiment: Effect of i.p. administration on hepatitis B virus in transgenic mice. The data set is classed as in vivo. How it is done: Compound 5 was evaluated in transgenic mice expressing hepatitis B virus (HBV). […] Its activity was also similar to the adefovir dipivoxil (ADV) anti-HBV activity; however, the two compounds seemed to suppress different HBV DNA species. […] In contrast, Compound 5 appeared to indiscriminately remose all HBV DNA species, including the bands typically left by ADV, which may reflect a different mechanism of action other than classical chain termination. Serum HBe, liver HBs, and HBc were not affected by Compound 5 treatment, which is consistent in transgenic mice with compounds that block viral synthesis “downstream” from mRNA synthesis, such as blockage of polymerase activities. A minimal effective dosage was determined to be between 1.6-0.5 mg/kg/day, which was similar to ADV minimal effective dosage of 1.0 mg/kg/day (Table 8).

Where only a bound is given, the exact number is not on record here.

`CCC[C@H](NC(=O)[C@@H]1[C@H]2CCC[C@H]2CN1C(=O)[C@@H](NC(=O)[C@@H](NC(=O)c1cnccn1)C1CCCCC1)C(C)(C)C)C(=O)C(=O)NC1CC1` [Vertex (telaprevir), telaprevir, reference compound]: the EC50 in the data set with HCV was 0.25 µM. Besides, the CC50 at 3 day in data set [1] is below 80 µM.
Take `Nc1ncnc2c1ccn2[C@H]1CC(OP(=O)(O)OC[C@H]2O[C@@H](n3cnc4c(N)ncnc43)CC2O)[C@@H](COP(=O)(O)OP(=O)(O)OP(=O)(O)O)O1` (some centres unmarked) [SB 90]: at RIG-I, the “RIG-I translocation on dsRNA (activity in words)” value (“RIG-I translocation on dsRNA” for short) is “varying degrees of RIG-I translocation”.
On to `CO[C@H]1C(OP(=O)(O)OC[C@H]2O[C@@H](n3cnc4c(N)ncnc43)CC2O)[C@@H](CO)O[C@H]1n1ccc(=O)[nH]c1=O` (some centres unmarked) [SB 70], for which, at RIG-I, the “RIG-I translocation on dsRNA” value is reported as “varying degrees of RIG-I translocation”.
Take `Nc1ccn([C@@H]2CS[C@H](CO)O2)c(=O)n1` [Compound 3TC, Lamivudine]: in the data set on HBV WT, the EC50 worked out at 0.2 µM and the EC90 is 0.7 µM. In the data set with HBV-3TC-R4 LMMV, this molecule displayed an EC50 above 100 µM and a concentration for an effect of 90% (EC90) above 100 µM.
With `CO[C@H]1C(OP(=O)(O)OC[C@H]2O[C@@H](n3cnc4c(N)ncnc43)CC2O)[C@@H](COP(=O)(O)OP(=O)(O)OP(=O)(O)O)O[C@H]1n1ccc(=O)[nH]c1=O` (some centres unmarked) [SB 80], on RIG-I, the “RIG-I translocation on dsRNA” value is “varying degrees of RIG-I translocation”.
As to `CC(C)(C)C(=O)OCOP(=O)(COCCn1cnc2c(N)ncnc21)OCOC(=O)C(C)(C)C` [ADV, adefovir dipivoxil, reference compound], in the data set with human hepatitis B virus [2], the “Liver HBV RNA (log transcripts ± sd)” value came out at 10.5 ± 0.4 log transcripts, the “QPCR Liver HBV DNA (pg/μg mean ± sd)” value came out at 1.7 ± 1.1 pg/µg and the “Southern blot Liver HBV DNA (pg/μg mean ± sd)” value came to 0.9 ± 1.1 pg/µg. In addition, the “Liver HBV DNA Southern blot (pg/μg mean ± sd)” value in the data set on human hepatitis B virus [3] (0.032 mg/kg/d) is recorded as 8.3 ± 11.3 (3) pg/μg. The “Liver HBV DNA Southern blot (pg/μg mean ± sd)” value in the data set on human hepatitis B virus [3] (0.10 mg/kg/d) is on record as 15.6 ± 13.7 (4) pg/μg. In the data set with HBV WT, the concentration giving a half-maximal response (EC50) turned out to be 1.5 µM and the EC90 amounted to 7 µM. Also, in the data set on HBV-3TC-R4 LMMV, the concentration giving a half-maximal response (EC50) came to 2.2 µM and the 90% effect concentration (EC90) is 8.3 µM. Moreover, in the data set on hepatitis B virus (HBV) (10 mg/kg/d, once daily 14 days), the “Liver HBV DNA (mean pg viral/μg cellular DNA ± stdev)” value is listed as 2.7 ± 1.4 (9) pg viral/μg cellular DNA and the “Serum HBV DNA (mean log10 genome equivalents/mL serum ± stdev)” value is given as 4.9 ± 0.4 (9) log10 genome equivalents/mL serum. Besides, the minimal effective dosage in the data set with hepatitis B virus (HBV) (HBV transgenic mice) came to 1.0 mg/kg/day.
In the case of `CC(C)[C@H](N)C(=O)O[C@@H]1[C@@H](CO)O[C@@H](n2ccc(N)nc2=O)[C@]1(C)O` [2C MeCyt (NM 283)], the EC50 with HCV worked out at 1.4 µM.
Consider `NC(=O)c1ncn([C@@H]2O[C@H](CO)[C@@H](O)[C@H]2O)n1` [Ribavirin], for which the EC50 in the data set on HCV was above 30 µM.
